Test results reported in BindingDB's records for doi:10.1016/j.bmc.2021.116093 (Wayne State University School of Medicine, 2021).

Key:
[1] = Inhibition of human FRbeta expressed in Chinese Hamster MTXRII-OuaR2-4 R2 cells assessed as reduction in cell proliferation after 96 hrs by CellTiter-blue assay
[2] = Inhibition of human RFC expressed in Chinese Hamster MTXRII-OuaR2-4 R2 cells assessed as reduction in cell proliferation after 96 hrs by CellTiter-blue assay
[3] = Inhibition of human FRalpha expressed in Chinese Hamster MTXRII-OuaR2-4 R2 cells assessed as reduction in cell proliferation after 96 hrs by CellTiter-blue assay
[4] = Inhibition of human PCFT expressed in Chinese Hamster MTXRII-OuaR2-4 R2 cells assessed as reduction in cell proliferation after 96 hrs by CellTiter-blue assay

| Structure (SMILES) | IC50 [1] | IC50 [2] | IC50 [3] | IC50 [4] |
| --- | --- | --- | --- | --- |
| Nc1nc2sc(CCCc3csc(C(=O)N[C@@H](CCC(=O)O)C(=O)O)c3)cc2c(=O)[nH]1 | 0.24 nM | > 1000 nM | 0.44 nM | 107 nM |
| Nc1nc2sc(CCCc3cc(C(=O)N[C@@H](CCC(=O)O)C(=O)O)cs3)cc2c(=O)[nH]1 | 0.72 nM | > 1000 nM | 1.1 nM | 80 nM |
| Nc1nc2sc(CCCc3ccc(C(=O)N[C@@H](CCC(=O)O)C(=O)O)s3)cc2c(=O)[nH]1 | 1.8 nM | > 1000 nM | 0.34 nM | > 1000 nM |
| Nc1nc2sc(CCCCc3cc(C(=O)N[C@@H](CCC(=O)O)C(=O)O)cs3)cc2c(=O)[nH]1 | 1.2 nM | > 1000 nM | 0.91 nM | > 1000 nM |
| Nc1nc2sc(CCCCc3ccc(C(=O)N[C@@H](CCC(=O)O)C(=O)O)cc3)cc2c(=O)[nH]1 [(S)-2-(4-(4-(2-amino-4-oxo-3,4-dihydrothieno[2,3-d]pyrimidin-6-yl)butyl)benzamido)pentanedioic acid] | 20 nM | > 1000 nM | 9 nM |  |
| Nc1nc2sc(CCCCc3ccc(C(=O)N[C@@H](CCC(=O)O)C(=O)O)o3)cc2c(=O)[nH]1 | 2.6 nM | > 1000 nM | 11 nM | > 1000 nM |
| Nc1nc2sc(CCCCc3ccc(C(=O)N[C@@H](CCC(=O)O)C(=O)O)s3)cc2c(=O)[nH]1 | 1.7 nM | > 1000 nM | 2.6 nM | > 1000 nM |
| Nc1nc2sc(CCCCc3csc(C(=O)N[C@@H](CCC(=O)O)C(=O)O)c3)cc2c(=O)[nH]1 | 5.6 nM | > 1000 nM | 5.6 nM | 460 nM |
